# Key:
# IL1-β = IL1-β gene expression in LPS-stimulated BV-2 microglia cells (RT-PCR); assay type: cell-based, mouse; details: BV-2 cells, pretreated 1 hour at 2 to 80 μg/ml, LPS 200 ng/ml, 6 hours
# Procedure: (§1) BV-2 microglia cells were cultured in a humidified 5% CO2 incubator at 37° C. using a Dulbecco's modified Eagle medium supplemented with 5% fetal bovine serum and 1% penicillin/streptomycin at 100 units/mL.
# (§2) Then, the cells were stimulated with LPS (200 ng/ml). After 6 hours, the cell supernatant was removed, RNA was identified from the cells, and TNF-α, IL1-β, and IL-6 genes were analyzed by RT-PCR. As a result, as shown in FIGS. 30(d), 35(d), and 36(d), it could be confirmed that natural product compound 1 and derivative compounds 4 and 6 decreased the expression levels of TNF-α, IL1-β, and IL-6 genes in a concentration-dependent manner.
# IL-6 = IL-6 gene expression in LPS-stimulated BV-2 microglia cells (RT-PCR); assay type: cell-based, mouse; details: BV-2 cells, pretreated 1 hour at 2 to 80 μg/ml, LPS 200 ng/ml, 6 hours
# Procedure: as §1, §2
# [1] = tested on: inducible nitric oxide synthase (iNOS); assay: iNOS protein and gene expression in LPS-treated BV-2 cells (Western blot, RT-PCR); assay type: cell-based, mouse; details: LPS 200 ng/ml, 2 to 80 μg/ml, protein 18 hours, gene 6 hours
# Procedure: as §1
# (§3) After culturing for 18 hours, the proteins were identified, and the expression patterns of iNOS and COX-2 proteins were confirmed by performing Western blot using polyclonal antibodies to iNOS and COX-2. For 6 hours after culturing the BV-2 cells by setting the same conditions, the cell supernatant was removed, RNA was identified from the cells, and iNOS and COX-2 genes were analyzed by RT-PCR. As a result, as shown in FIGS. 30(c), 35(c), and 36(c), it could be confirmed that natural product Compound 1 and derivative Compounds 4 and 6 decreased the expression levels of iNOS and COX-2 proteins and genes in a concentration-dependent manner.
# TNF-α = TNF-α gene expression in LPS-stimulated BV-2 microglia cells (RT-PCR); assay type: cell-based, mouse; details: BV-2 cells, pretreated 1 hour at 2 to 80 μg/ml, LPS 200 ng/ml, 6 hours
# Procedure: as §1, §2
# [2] = tested on: cyclooxygenase type 2 (COX-2); assay: COX-2 protein and gene expression in LPS-treated BV-2 cells (Western blot, RT-PCR); assay type: cell-based, mouse; details: LPS 200 ng/ml, 2 to 80 μg/ml, protein 18 hours, gene 6 hours
# Procedure: as §1, §3
# [3] = tested on: nitric oxide (NO) produced in mouse BV-2 microglia cells stimulated with LPS; assay: NO production inhibition in LPS-stimulated BV-2 microglia cells (Griess reagent); assay type: cell-based; details: LPS 200 ng/ml; for IC50: mouse BV-2 microglia cells, 24 h, read-out: NO inhibitory activity (IC50 value)
# Procedure: as §1
# In all experiments, the number of cells was 2.5×10^5 cell/ml, the cells were first treated with each of Compounds of Examples 1 to 25 by concentration (2.5 to 200 μg/ml), and LPS was diluted in medium and used at a concentration of 200 ng/ml. A cytotoxicity test was performed using MTT assay, and the MTT assay was performed by performing NO assay and injecting 30 μl of MTT at a concentration of 0.5 mg/ml into the cells in a microplate. After reacting for 2 hours in the incubator, formazan crystals were dissolved in 100 μl of DMSO, and the absorbance was measured using a Vmax microplate reader (Tencan Co., Switzerland) with a wavelength of 540 nm. In order to quantitatively measure the production of nitric oxide (NO), mouse BV-2 microglia cells were prepared in a microplate (96 well), and added with LPS (200 ng/ml) and Compounds by concentration (2.5 to 200 μg/ml). The cells reacted in an incubator for 24 h, and 50 μl of the supernatant reacted with a Griess reagent (a mixed solution of 1% sulfanilamide, 0.1% N-(1-naphthyl)-ethylenediamine dihydrochloride, and 2.5% H3PO4), and then the absorbance was measured using a Vmax 96-well microplate spectrophotometer with a wavelength of 550 nm.
# In order to analyze the anti-inflammatory efficacy of Compound of Example 1, the concentration inhibitory effect of nitric oxide (NO) produced in mouse BV-2 microglia cells stimulated with LPS (200 ng/ml), a neuroinflammatory factor, was confirmed.
# The neuroinflammation inhibitory effects of Compounds of Examples 2 to 25 were confirmed.
# In order to analyze the anti-inflammatory efficacy of Compound 26 of Chemical Formula 2, the concentration inhibitory effect of nitric oxide (NO) produced in mouse BV-2 microglia cells stimulated with LPS (200 ng/ml), a neuroinflammatory factor, was confirmed. Compound 26 of Chemical Formula 2 was purchased from Santa Cruz biotechnology (CAS 79127-35-8) and the experiment was performed. As a result of treating Compound of Chemical Formula 2 at […], it was confirmed that the amount of nitric oxide (NO) was reduced, as shown in FIG. 37A.
IC50 [3] [µM],SMILES,expression levels of IL1-β gene (IL1-β),expression levels of IL-6 gene (IL-6),expression levels of iNOS proteins and genes [1],expression levels of TNF-α gene (TNF-α),expression levels of COX-2 proteins and genes [2],"amount of nitric oxide (NO) ([3]; BV-2 cells, treated at 20 to 60 μM (FIG. 30A))"
46.6,"O=C1O[C@@H]2OC(CO)=C[C@H]3[C@@H]2C=C[C@@H]13 [Compound 1, (1S,4aS,5R,7aS)-3-(hydroxymethyl)-1,4a,5,7a-tetrahydro-1,5-(epoxymethano)cyclopenta[c]pyran-8-one]",decreased,decreased,decreased,decreased,decreased,reduced
13.3,"O=C(OCC1=C[C@H]2[C@@H]3C=C[C@H]2C(=O)O[C@@H]3O1)c1ccc(Br)cc1 [Compound 4, ((1S,4aS,5R,7aS)-8-oxo-1,4a,5,7a-tetrahydro-1,5-(epoxymethano)cyclopenta[c]pyran-3-yl)methyl 4-bromobenzoate]",decreased,decreased,decreased,decreased,decreased,–
4.5,"O=CC1=C[C@H]2[C@@H]3C=C[C@H]2C(=O)O[C@@H]3O1 [Compound 6, (1S,4aS,5R,7aS)-8-oxo-1,4a,5,7a-tetrahydro-1,5-(epoxymethano)cyclopenta[c]pyran-3-carbaldehyde]",decreased,decreased,decreased,decreased,decreased,–

# — patent publication US20250034164A1, “NOVEL COMPOUND AND COMPOSITION FOR PREVENTING OR TREATING NEUROINFLAMMATORY BRAIN DISEASES COMPRISING SAME AS ACTIVE INGREDIENT” (KOREA INSTITUTE OF OCEAN SCIENCE & TECHNOLOGY, priority 2021, published 2025)
